Several values for one entry are separate records, joined by “and”; a condition that tells them apart may be missing. Equal values may be shown once.
Assays:
[1] = molecular target: SARS-CoV-2 Main Protease (SARS-CoV-2) (UniProt P0DTD1)
[2] = in vivo, iv
[3] = pampa
[4] = rat; plasma
[5] = human; plasma
[6] = human; liver_microsomes
[7] = not given; remark: listed apart in the source
[8] = molecular target: PSP (Eurofins): hr ERalpha (Binding) (AC50) (UniProt P03372)
[9] = cattle; serum
[10] = not given; remark: listed apart in the source
[11] = mouse; plasma
[12] = dog; liver_microsomes
[13] = rat; in vivo; po; 10.0 mg/kg
[14] = mouse; liver_microsomes
[15] = mouse; hepatocytes
SARS-CoV-2 (SARS-CoV-2) = conditions: helaace2
[16] = not given; remark: listed apart in the source
[17] = helaace2

UniProt P03372, sequence (P03372 whole entry, looked up): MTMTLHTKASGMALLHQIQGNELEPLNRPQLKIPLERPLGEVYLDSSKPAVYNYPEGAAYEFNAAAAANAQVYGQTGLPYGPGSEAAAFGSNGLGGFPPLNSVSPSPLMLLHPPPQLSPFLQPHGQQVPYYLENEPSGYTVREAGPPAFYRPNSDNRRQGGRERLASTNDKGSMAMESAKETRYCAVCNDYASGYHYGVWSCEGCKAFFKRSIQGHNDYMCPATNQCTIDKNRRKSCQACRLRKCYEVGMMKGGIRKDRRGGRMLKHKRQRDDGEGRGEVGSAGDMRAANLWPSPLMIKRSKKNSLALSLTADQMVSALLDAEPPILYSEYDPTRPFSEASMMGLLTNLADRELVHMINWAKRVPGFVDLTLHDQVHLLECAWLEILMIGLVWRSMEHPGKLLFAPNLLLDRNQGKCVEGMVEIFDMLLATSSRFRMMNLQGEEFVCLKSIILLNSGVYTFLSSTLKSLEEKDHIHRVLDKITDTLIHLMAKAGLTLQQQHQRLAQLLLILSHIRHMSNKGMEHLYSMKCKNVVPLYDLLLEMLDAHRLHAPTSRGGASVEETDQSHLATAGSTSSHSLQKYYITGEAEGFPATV

## C[C@@H]1C[C@@H](C(=O)Nc2cncc3ccccc23)c2cc(Cl)ccc2O1 (stereo in doubt)
other
  logD: 3.4
[1]
  IC50: 231 nM

## CNC(=O)c1cc2c(NC(=O)C3CCOc4ccc(Cl)cc43)cncc2s1 (stereo not drawn)
other
  logD: 3
[2]; rat, 0.5 mg/kg
  AUC(0-inf): 267 ng·h/mL and 298 ng·h/mL
  AUC(0-t): 263 ng·h/mL and 291 ng·h/mL
  C0: 712 ng/mL and 752 ng/mL
  MRT inf: 55.4 min and 40.1 min
  MRT last: 35.8 min and 39.7 min
  Vd: 1.45 L/kg and 1.85 L/kg
  clearance: 36.2 mL/min/kg and 32.6 mL/min/kg
  half-life: 39.1 min and 113 min
[1]
  IC50: 571 nM

## COCCS(=O)(=O)N1Cc2ccc(Cl)cc2C(C(=O)Nc2cncc3ccccc23)C1 (stereo not drawn)
other
  logD: 2.3
[1]
  IC50: 211 nM and 214 nM

## N#CC1(CS(=O)(=O)N2Cc3ccc(Cl)cc3C(C(=O)Nc3cncc4ccccc34)C2)CNC1 (stereo not drawn)
other
  logD: 1.8
[2]; rat, 0.5 mg/kg
  AUC(0-inf): 101 ng·h/mL and 104 ng·h/mL
  AUC(0-t): 99.7 ng·h/mL and 102 ng·h/mL
  C0: 417 ng/mL and 369 ng/mL
  MRT inf: 24.5 min and 22.7 min
  MRT last: 20.7 min and 22.2 min
  Vd: 1.55 L/kg and 1.68 L/kg
  clearance: 68.6 mL/min/kg and 67.4 mL/min/kg
  half-life: 20.8 min and 21.5 min
[1]
  IC50: 169 nM

## C=CC(=O)N(C(=O)C1COc2ccc(Cl)cc21)c1cncc2ccccc12 (stereo not drawn)
[3]
  Papp: 435 ×10⁻⁶ cm/s

## O=C(Nc1cncc2ccccc12)C1CN(S(=O)(=O)CC2CNC2)Cc2ccc(Cl)cc21 (stereo not drawn)
[4]
  fraction unbound: 0.335
[5]
  fraction unbound: 0.295
other
  logD: 0.2
[2]; rat, 0.5 mg/kg
  AUC(0-inf): 83.4 ng·h/mL and 86.5 ng·h/mL
  AUC(0-t): 76.9 ng·h/mL and 76.7 ng·h/mL
  C0: 406 ng/mL and 381 ng/mL
  MRT inf: 67.2 min and 61.8 min
  MRT last: 33.2 min and 32 min
  Vd: 5.86 L/kg and 6.06 L/kg
  clearance: 94.6 mL/min/kg and 91.2 mL/min/kg
  half-life: 91.2 min
[6]
  microsomal CLint: 10 µL/min/mg
[7]; mdck
  Fa: 30.7%
  Papp A→B: 1.6 ×10⁻⁶ cm/s
  recovery: 93%
[7]; mdck_mdr1
  Papp A→B: 0.517 ×10⁻⁶ cm/s and 0.7 ×10⁻⁶ cm/s
  Papp B→A: 0.896 ×10⁻⁶ cm/s and 0.9 ×10⁻⁶ cm/s
[8]
  AC50: 20400 nM

## O=C(Nc1cncc2ccccc12)C1CN(S(=O)(=O)C2CNC2)Cc2ccc(Cl)cc21 (stereo not drawn)
other
  logD: 1.4
[1]
  IC50: 274 nM

## O=C(Nc1cncc2ccccc12)[C@@H]1CCNc2cc(Cl)c(Cl)cc21 (stereo in doubt)
[4]
  fraction unbound: 0.033 (2×) and 0.029
  recovery: 98.4%
[9]
  fraction unbound: 0.584
  recovery: 70.6%
[10]
  logD: 3.4 and 3.54
[5]
  fraction unbound: 0.049 (2×) and 0.023
  recovery: 105%
[11]
  fraction unbound: 0.039
  recovery: 98.1%
other
  logD: 3.8
[12]
  half-life: 27.9 min
  microsomal CLint: 62.2 µL/min/mg
[2]; rat, 0.5 mg/kg
  AUC(0-inf): 198 ng·h/mL and 170 ng·h/mL
  C0: 559 ng/mL and 452 ng/mL
  MRT inf: 33.1 min and 29.5 min
  MRT last: 26.2 min and 27.9 min
  Vd: 1.46 L/kg and 1.94 L/kg
  clearance: 49.6 mL/min/kg and 60.7 mL/min/kg
[2]; rat, 1.0 mg/kg
  AUC(0-inf): 220 ng·h/mL and 249 ng·h/mL
  C0: 324 ng/mL and 410 ng/mL
  MRT inf: 44.1 min and 46 min
  MRT last: 44.8 min and 42.7 min
  Vd: 3.49 L/kg and 2.99 L/kg
  clearance: 75.9 mL/min/kg and 68 mL/min/kg
  half-life: 38.2 min and 32.5 min
[13]
  AUC(0-inf): 257 ng·h/mL
  AUC(0-t): 247 ng·h/mL
  CL/F: 653 mL/min/kg
  Cmax: 40.4 ng/mL
  MRT last: 397 min
  Tmax: 120 min
  bioavailability: 10.2% (2×) and 11.9%
  half-life: 255 min
[6]
  microsomal CLint: 40 µL/min/mg
[14]
  half-life: 9.3 min
  microsomal CLint: 290 µL/min/mg and 186 µL/min/mg
[15]
  half-life: 83 min
[1]
  IC50: < 50 nM and 47.4 nM

## Cc1cccc(/C=N/Nc2cc(N3CCOCC3)nc(OCCc3ccccn3)n2)c1
SARS-CoV-2 (SARS-CoV-2)
  EC50: < 10 nM and 14.7 nM and 22.9 nM
  EC90: 158 nM and 70.8 nM and 82.9 nM

## O=C(Nc1cnccc1C1CC1)C1CCNc2cc(Cl)c(Cl)cc21 (stereo not drawn)
[2]; rat, 0.5 mg/kg
  AUC(0-inf): 144 ng·h/mL and 96.1 ng·h/mL
  AUC(0-t): 142 ng·h/mL and 94.2 ng·h/mL
  C0: 341 ng/mL and 180 ng/mL
  MRT inf: 46.2 min and 45.9 min
  MRT last: 40.6 min and 41 min
  Vd: 2.65 L/kg and 4.01 L/kg
  clearance: 57.7 mL/min/kg and 86.8 mL/min/kg
  half-life: 49.4 min and 48.2 min
[16]; a549
  CC50: > 9990 nM
[16]; mda-md-435
  CC50: > 9990 nM

## O=C(Nc1cncc2ccncc12)[C@H]1CCOc2ccc(Cl)cc21 (stereo in doubt)
[10]
  logD: 2.59 and 2.5
[11]
  fraction unbound: 0.219
  recovery: 102%
other
  logD: 2.6
[2]; mouse, 0.5 mg/kg
  AUC(0-inf): 113 ng·h/mL and 122 ng·h/mL
  AUC(0-t): 112 ng·h/mL and 118 ng·h/mL
  C0: 525 ng/mL and 604 ng/mL
  MRT inf: 13.7 min and 14.6 min
  MRT last: 13 min
  Vd: 1.01 L/kg and 1 L/kg
  clearance: 73.5 mL/min/kg and 68.7 mL/min/kg
  half-life: 9.48 min and 11.9 min
[14]
  half-life: 7.8 min
  microsomal CLint: 223 µL/min/mg
[16]; a549
  CC50: > 9990 nM

## COc1ccc(Cl)cc1OCCNC(=O)c1cc(=O)[nH]c2cccc(OC)c12
[3]
  Papp: 109 ×10⁻⁶ cm/s
[1]
  IC50: 874 nM

## COc1ccc(C[C@H](N)C(=O)N[C@H]2[C@@H](O)[C@H](n3cnc4c(N(C)C)ncnc43)O[C@@H]2CO)cc1 (stereo in doubt)
[17]
  CC50: 325 nM and 831 nM and 504 nM

## O=C(Nc1cncc2cc(CO)ccc12)C1CCOc2ccc(Cl)cc21 (stereo not drawn)
other
  logD: 2.2
[2]; rat, 0.5 mg/kg
  AUC(0-inf): 187 ng·h/mL and 325 ng·h/mL
  AUC(0-t): 182 ng·h/mL and 321 ng·h/mL
  C0: 518 ng/mL and 742 ng/mL
  MRT inf: 36.2 min and 29.3 min
  MRT last: 26 min and 34 min
  Vd: 1.31 L/kg and 0.947 L/kg
  clearance: 44.6 mL/min/kg and 26.8 mL/min/kg
  half-life: 27.7 min
[1]
  IC50: 1400 nM

## COc1ccc2cncc(NC(=O)C3(OC)CCOc4ccc(Cl)cc43)c2c1 (stereo not drawn)
other
  logD: 3.4
[2]; mouse, 0.5 mg/kg
  AUC(0-inf): 98.2 ng·h/mL and 108 ng·h/mL
  C0: 246 ng/mL and 252 ng/mL
  MRT inf: 41.5 min and 34.1 min
  MRT last: 30.8 min and 28.1 min
  Vd: 3.52 L/kg and 2.67 L/kg
  clearance: 84.9 mL/min/kg and 77.9 mL/min/kg
  half-life: 35.6 min and 29 min
[1]
  IC50: 116 nM and 120 nM

## CS(=O)(=O)c1ccc2cncc(NC(=O)C3CCNc4cc(Cl)c(Cl)cc43)c2c1 (stereo not drawn)
other
  logD: 3.1
[2]; rat, 0.5 mg/kg
  AUC(0-inf): 285 ng·h/mL and 378 ng·h/mL and 178 ng·h/mL
  AUC(0-t): 282 ng·h/mL and 377 ng·h/mL and 175 ng·h/mL
  C0: 741 ng/mL and 1320 ng/mL and 725 ng/mL
  MRT inf: 28.6 min and 41 min and 22.8 min
  MRT last: 38 min and 27.8 min and 21 min
  Vd: 1.2 L/kg and 0.645 L/kg and 1.15 L/kg
  clearance: 29.2 mL/min/kg and 22.4 mL/min/kg and 50.2 mL/min/kg
  half-life: 38.9 min and 29.9 min and 21.2 min
[16]; a549
  CC50: > 9990 nM
[1]
  IC50: 526 nM

## O=C(Nc1cncc2c1CCCC2)C1CCNc2cc(Cl)c(Cl)cc21 (stereo not drawn)
other
  logD: 3.9

## O=C(Nc1cncc2ccccc12)C1CCS(=O)(=O)c2ccc(Cl)cc21 (stereo not drawn)
[4]
  fraction unbound: 0.2
  recovery: 98%
[5]
  fraction unbound: 0.106 and 0.125
  recovery: 96.9%
other
  logD: 2
[12]
  half-life: 69 min
[2]; mouse, 0.5 mg/kg
  AUC(0-inf): 192 ng·h/mL and 207 ng·h/mL
  AUC(0-t): 190 ng·h/mL and 204 ng·h/mL
  C0: 460 ng/mL and 586 ng/mL
  MRT inf: 26.5 min and 25.2 min
  MRT last: 25.1 min and 23.6 min
  Vd: 1.09 L/kg and 0.972 L/kg
  clearance: 41.3 mL/min/kg and 38.6 mL/min/kg
  half-life: 18.4 min and 19.9 min
[2]; rat, 2.0 mg/kg
  AUC(0-inf): 2890 ng·h/mL
  AUC(0-t): 2850 ng·h/mL and 2840 ng·h/mL
  C0: 1400 ng/mL and 1460 ng/mL
  MRT inf: 112 min and 98.4 min
  MRT last: 92.4 min and 101 min
  Vd: 1.13 L/kg and 1.29 L/kg
  clearance: 11.5 mL/min/kg and 11.6 mL/min/kg
  half-life: 78 min and 88.2 min
[13]
  AUC(0-inf): 14300 ng·h/mL
  AUC(0-t): 14300 ng·h/mL
  CL/F: 11.9 mL/min/kg
  MRT inf: 205 min
  MRT last: 205 min
  Tmax: 60 min
  half-life: 115 min
[6]
  microsomal CLint: 10 µL/min/mg
[1]
  IC50: 288 nM

## O=C(Cc1cccc(Cl)c1)Nc1cncc2cccc(F)c12
other
  logD: 3.1
[1]
  IC50: 1310 nM

## CCC(CC)COC(=O)[C@H](C)NP(=O)(OC[C@H]1O[C@@](C#N)(c2ccc3c(N)ncnn23)[C@H](O)[C@@H]1O)Oc1ccccc1 (stereo in doubt)
[17]
  CC50: 10800 nM and 27000 nM and 16400 nM

## COc1ccc2cncc(NC(=O)[C@]3(OC)CCOc4ccc(Cl)cc43)c2c1 (stereo in doubt)
other
  logD: 3.4
[1]
  IC50: 61.2 nM and 76.5 nM and 85.3 nM

## CN(C)C(=O)CNCC1(C(=O)Nc2cncc3ccccc23)CCOc2ccc(Cl)cc21 (stereo not drawn)
other
  logD: 2.7
[1]
  IC50: 603 nM

## CS(=O)(=O)N1Cc2ccc(Cl)cc2[C@H](C(=O)Nc2cncc3ccccc23)C1 (stereo in doubt)
other
  logD: 2.2

## CN1CCN(S(=O)(=O)N2Cc3ccc(Cl)cc3C(C(=O)Nc3cncc4ccccc34)C2)CC1 (stereo not drawn)
other
  logD: 2.1
[2]; rat, 0.5 mg/kg
  AUC(0-inf): 88 ng·h/mL and 85 ng·h/mL
  AUC(0-t): 84.3 ng·h/mL and 82.4 ng·h/mL
  C0: 211 ng/mL and 112 ng/mL
  MRT inf: 56.3 min and 30.7 min
  MRT last: 24.9 min and 47.2 min
  Vd: 1.6 L/kg and 3.12 L/kg
  clearance: 52.1 mL/min/kg and 55.5 mL/min/kg
  half-life: 29.6 min and 52.7 min
[1]
  IC50: 116 nM

Reference: the COVID Moonshot data (paper PMC7615835)
